Assay [1] addresses T1, AMPK protein (recombinant α1β1γ2) (Homo sapiens, UniProt Q13131+Q9Y478).
T1 construct: made in house; host or cells: E. coli
The experiment in a line: AMPK enzymatic activity (Delfia, AMARA peptide). It counts as biochemical. As to conditions: compound 30 μM vs AMP 30 μM; 125 μM ATP; 30 min room temperature; ratio 90% or higher = direct activator. The procedure:
The following biological test allows the determination of the efficacy of such compounds of formula (I) onto AMPK protein (recombinant α1β1γ2).
Human recombinant AMPK enzyme was expressed in E. Coli and was reactivated in vitro by LKB1 prior to enzyme activity determination.
AMPK enzyme activities were assayed by using A Delfia technology. AMPK enzyme activities were carried out in microtiter plates (50 mM Hepes buffer, pH 7.4 with 125 μM ATP respectively) in the presence of a synthetic peptide substrate (AMARAASAAALARRR, the “AMARA” peptide) and activators in serial dilutions. Reactions were initiated by the addition of AMPK (50-100 ng). Following mixing, the plates were incubated for 30 min at room temperature. Enzyme activity was assayed by using an anti-phosphoserine antibody to measure the quantity of phosphate incorporated into the AMARAA.
Ratio between the % of control (basal activity) of compound of formula (I) at 30 μM and the % of control (basal activity) of AMP (natural substrate) at 30 μM. Compounds of formula (I) in the table II are considered as direct activator of AMPK if the ratio is 90% or higher.

The test system of assay [2] is H-2 Kb cells. The experiment in a line: Glucose uptake in H-2 Kb cells (in vitro cellular test). Type of assay: cell-based, mouse. As to conditions: differentiated H-2 Kb muscle cells, 4 hours incubation, 2-deoxy-D-[3H]glucose 10 min; for EC (glucose uptake equal or higher to insulin 170 nM): Mus musculus, read-out: activity: Concentration of compound for a glucose uptake equal or higher to glucose uptake induced by insulin (170 nM). The procedure:
The following cellular test allows the determination of the effect of AMPK activators such as compounds of formula (I) onto glucose uptake in a muscle cellular model.
H-2 Kb cells derived from heterozygous H-2 Kb tsA58 transgenic mouse were grown in 24-well in plates coated with matrigel and were cultured at 33° C. for 4 days under permissive conditions, as described previously by Fryer et al. (Diabetes 49 (12): 1978, 2000).
For differentiation in muscle, cells were switched to non-permissive culture conditions (37° C. in the absence of interferon-γ). After 3 days, cells were incubated for 4 hours in DMEM 1 g/l glucose culture medium containing different concentrations of the tested molecules. Then glucose uptake was measured by incubating the cells for 10 min with radiolabelled 2-deoxy-D-[1, 2 ^3H] glucose. Glucose uptake was terminated by rapidly washing the plates 2 times with ice-cold NaCl 0.9%. The cells were then solubilized in 0.1N NaOH for 30 min. Radioactivity was determined by liquid scintillation counting.
Activity table III: Concentration of compound (1) for a glucose uptake equal or higher to glucose uptake induced by insulin (170 nM)

The values that follow come from patent US8604202B2, “Thienopyridone derivatives as AMP-activated protein kinase (AMPK) activators” (Merck Patent GmbH, priority 2008, dated 2013).

Some results are limits rather than exact numbers.

T1 sequence (Q13131 whole entry): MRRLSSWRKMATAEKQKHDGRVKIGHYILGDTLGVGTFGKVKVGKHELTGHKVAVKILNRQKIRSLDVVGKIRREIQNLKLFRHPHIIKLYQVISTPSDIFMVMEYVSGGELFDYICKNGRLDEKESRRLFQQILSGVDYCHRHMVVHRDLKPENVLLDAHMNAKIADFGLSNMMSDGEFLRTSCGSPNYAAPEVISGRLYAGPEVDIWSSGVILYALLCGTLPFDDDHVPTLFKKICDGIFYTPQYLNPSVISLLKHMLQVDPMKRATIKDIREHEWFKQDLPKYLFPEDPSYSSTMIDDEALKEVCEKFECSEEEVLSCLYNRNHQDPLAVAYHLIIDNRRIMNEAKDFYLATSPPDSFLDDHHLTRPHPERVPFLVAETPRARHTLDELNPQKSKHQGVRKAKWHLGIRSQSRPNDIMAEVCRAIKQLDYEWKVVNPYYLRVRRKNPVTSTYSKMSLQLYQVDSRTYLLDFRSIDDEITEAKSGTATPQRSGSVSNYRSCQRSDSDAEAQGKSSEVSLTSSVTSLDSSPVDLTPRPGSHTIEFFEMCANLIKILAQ
T1 sequence (Q9Y478 whole entry): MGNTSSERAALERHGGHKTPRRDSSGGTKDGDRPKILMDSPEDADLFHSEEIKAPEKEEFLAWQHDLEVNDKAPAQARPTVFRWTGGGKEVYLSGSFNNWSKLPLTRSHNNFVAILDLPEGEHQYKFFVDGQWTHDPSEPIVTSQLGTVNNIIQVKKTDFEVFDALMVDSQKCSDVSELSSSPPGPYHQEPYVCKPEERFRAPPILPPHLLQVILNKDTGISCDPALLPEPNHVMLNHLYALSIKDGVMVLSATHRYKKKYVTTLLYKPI
T1 sequence (Q9UGJ0 whole entry partner): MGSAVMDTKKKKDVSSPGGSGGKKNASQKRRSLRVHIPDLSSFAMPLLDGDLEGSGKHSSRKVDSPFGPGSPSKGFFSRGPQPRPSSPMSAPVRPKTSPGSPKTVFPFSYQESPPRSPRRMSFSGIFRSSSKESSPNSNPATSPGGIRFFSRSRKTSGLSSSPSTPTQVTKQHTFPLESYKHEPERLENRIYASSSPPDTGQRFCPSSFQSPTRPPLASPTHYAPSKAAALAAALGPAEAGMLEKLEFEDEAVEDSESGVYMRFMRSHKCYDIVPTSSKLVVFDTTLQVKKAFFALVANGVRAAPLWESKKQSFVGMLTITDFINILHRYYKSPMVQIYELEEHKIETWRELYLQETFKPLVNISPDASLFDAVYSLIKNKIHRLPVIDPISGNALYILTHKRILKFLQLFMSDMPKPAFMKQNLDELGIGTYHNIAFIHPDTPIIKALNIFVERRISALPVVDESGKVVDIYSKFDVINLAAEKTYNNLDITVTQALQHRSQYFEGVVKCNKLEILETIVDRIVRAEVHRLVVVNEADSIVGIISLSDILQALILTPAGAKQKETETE

`O=c1[nH]c2scc(-c3ccc(-c4ccccc4)cc3)c2c(O)c1-c1ccccc1` [Compound 1, 3-biphenyl-4-yl-4-hydroxy-5-phenyl-6,7-dihydro-thieno[2,3-b]pyridin-6-one]: the “activity: Ratio between the % of control (basal activity) of compound of formula (I) at 30 μM and the % of control (basal activity) of AMP at 30 μM” value (“activity: Ratio between the % of control” for short) in assay [1] amounted to 130%. Also, in assay [2], the EC (glucose uptake equal or higher to insulin 170 nM) was greater than 10 µM.

On to `COc1ccccc1-c1ccc(-c2csc3[nH]c(=O)c(-c4ccccc4)c(O)c23)cc1` [Compound 2, 4-hydroxy-3-(2′-methoxybiphenyl-4-yl)-5-phenyl-6,7-dihydro-thieno[2,3-b]pyridin-6-one], for which the “activity: Ratio between the % of control” value in assay [1] turned out to be 158%. The EC (glucose uptake equal or higher to insulin 170 nM) in assay [2] was greater than 10 µM.

For `COc1ccccc1-c1ccc(-c2c(Cl)sc3[nH]c(=O)c(-c4ccccc4)c(O)c23)cc1` [Compound 3, 2-chloro-4-hydroxy-3-(2′-methoxybiphenyl-4-yl)-5-phenyl-6,7-dihydro-thieno[2,3-b]pyridin-6-one], the “activity: Ratio between the % of control” value in assay [1] is 111%. Besides, the “activity: Concentration of compound for a glucose uptake equal or higher to glucose uptake induced by insulin (170 nM)” value in assay [2] is recorded as “** (concentration of compound (I) ≦10 microMolar)”.

As to `O=c1[nH]c2scc(-c3ccc(-c4ccccc4O)cc3)c2c(O)c1-c1ccccc1` [Compound 4, 4-hydroxy-3-(2′-hydroxybiphenyl-4-yl)-5-phenyl-6,7-dihydro-thieno[2,3-b]pyridin-6-one], in assay [1], the “activity: Ratio between the % of control” value worked out at 126%. In addition, the EC (glucose uptake equal or higher to insulin 170 nM) in assay [2] was greater than 10 µM.

Take `O=c1[nH]c2scc(-c3ccc(-c4ccccc4F)cc3)c2c(O)c1-c1ccccc1` [Compound 6, 3-(2′-fluorobiphenyl-4-yl)-4-hydroxy-5-phenyl-6,7-dihydro-thieno[2,3-b]pyridin-6-one]: the “activity: Ratio between the % of control” value in assay [1] is given as 191%. Besides, in assay [2], the EC (glucose uptake equal or higher to insulin 170 nM) is greater than 10 µM.

`Cc1ccccc1-c1ccc(-c2csc3[nH]c(=O)c(-c4ccccc4)c(O)c23)cc1` [Compound 7, 4-hydroxy-3-(2′-methylbiphenyl-4-yl)-5-phenyl-6,7-dihydro-thieno[2,3-b]pyridin-6-one]: the “activity: Ratio between the % of control” value in assay [1] turned out to be 141%. The EC (glucose uptake equal or higher to insulin 170 nM) in assay [2] was greater than 10 µM.

Take `O=c1[nH]c2scc(-c3ccc(-c4cccc(O)c4)cc3)c2c(O)c1-c1ccccc1` [Compound 9, 4-hydroxy-3-(3′-hydroxybiphenyl-4-yl)-5-phenyl-6,7-dihydro-thieno[2,3-b]pyridin-6-one]: the “activity: Ratio between the % of control” value in assay [1] was 120%. For the same compound, the EC (glucose uptake equal or higher to insulin 170 nM) in assay [2] was greater than 10 µM.

Regarding `Cc1cccc(-c2ccc(-c3csc4[nH]c(=O)c(-c5ccccc5)c(O)c34)cc2)c1` [Compound 11, 4-hydroxy-3-(3′-methylbiphenyl-4-yl)-5-phenyl-6,7-dihydro-thieno[2,3-b]pyridin-6-one], in assay [1], the “activity: Ratio between the % of control” value was found to be 150%. Moreover, the EC (glucose uptake equal or higher to insulin 170 nM) in assay [2] is greater than 10 µM.

For the compound `CS(=O)(=O)c1ccc(-c2ccc(-c3csc4[nH]c(=O)c(-c5ccccc5)c(O)c34)cc2)cc1` [Compound 20, 4-hydroxy-3-(4′-methylsulfonylbiphenyl-4-yl)-5-phenyl-6,7-dihydro-thieno[2,3-b]pyridin-6-one], the “activity: Ratio between the % of control” value in assay [1] came to 206%. Moreover, the EC (glucose uptake equal or higher to insulin 170 nM) in assay [2] is greater than 10 µM.

With `COc1cc(-c2csc3[nH]c(=O)c(-c4ccccc4)c(O)c23)ccc1-c1ccccc1` [Compound 45, 4-hydroxy-3-(2-methoxybiphenyl-4-yl)-5-phenyl-6,7-dihydro-thieno[2,3-b]pyridin-6-one], in assay [1], the “activity: Ratio between the % of control” value was 120%.

In the case of `COc1cc(-c2csc3[nH]c(=O)c(-c4ccccc4)c(O)c23)ccc1-c1ccc(C)cc1` [Compound 46, 4-hydroxy-3-(4′-methyl-2-methoxybiphenyl-4-yl)-5-phenyl-6,7-dihydro-thieno[2,3-b]pyridin-6-one], in assay [1], the “activity: Ratio between the % of control” value is listed as 124%.

On to `COc1cc(-c2csc3[nH]c(=O)c(-c4ccccc4)c(O)c23)ccc1-c1ccc(F)cc1` [Compound 47, 3-(4′-fluoro-2-methoxybiphenyl-4-yl)-4-hydroxy-5-phenyl-6,7-dihydro-thieno[2,3-b]pyridin-6-one], for which the “activity: Ratio between the % of control” value in assay [1] was determined as 118%.

Take `COc1cc(-c2csc3[nH]c(=O)c(-c4ccccc4)c(O)c23)ccc1-c1ccc(O)cc1` [Compound 48, 4-hydroxy-3-(4′-hydroxy-2-methoxybiphenyl-4-yl)-5-phenyl-6,7-dihydro-thieno[2,3-b]pyridin-6-one]: the “activity: Ratio between the % of control” value in assay [1] is given as 264%.

For `Cc1ccc(-c2ccc(-c3csc4[nH]c(=O)c(-c5ccccc5)c(O)c34)cc2O)cc1` [Compound 50, 4-hydroxy-3-(2-hydroxy-4′-methylbiphenyl-4-yl)-5-phenyl-6,7-dihydro-thieno[2,3-b]pyridin-6-one], in assay [1], the “activity: Ratio between the % of control” value stood at 421%.

With `O=c1[nH]c2scc(-c3ccc(-c4ccc(O)cc4)c(O)c3)c2c(O)c1-c1ccccc1` [Compound 51, 4-hydroxy-3-(2,4′-hydroxybiphenyl-4-yl)-5-phenyl-6,7-dihydro-thieno[2,3-b]pyridin-6-one], in assay [1], the “activity: Ratio between the % of control” value is given as 384%.

For `COc1cc(-c2csc3[nH]c(=O)c(-c4ccccc4)c(O)c23)ccc1-c1ccc(C(=O)O)cc1` [Compound 52, 4′-(4-hydroxy-6-oxo-5-phenyl-6,7-dihydro-thieno[2,3-b]pyridin-3-yl)-2′-methoxybiphenyl-4-carboxylic acid], in assay [1], the “activity: Ratio between the % of control” value turned out to be 219%.

As to `O=C(O)c1ccc(-c2ccc(-c3csc4[nH]c(=O)c(-c5ccccc5)c(O)c34)cc2O)cc1` [Compound 53, 2′-hydroxy-4′-(4-hydroxy-6-oxo-5-phenyl-6,7-dihydro-thieno[2,3-b]pyridin-3-yl)biphenyl-4-carboxylic acid], in assay [1], the “activity: Ratio between the % of control” value is recorded as 376%.

Consider `COc1cc(-c2csc3[nH]c(=O)c(-c4ccccc4)c(O)c23)ccc1-c1cccc(CO)c1` [Compound 55, 4-hydroxy-3-(3′-hydroxymethyl-2-methoxybiphenyl-4-yl)-5-phenyl-6,7-dihydro-thieno[2,3-b]pyridin-6-one], for which the “activity: Ratio between the % of control” value in assay [1] is 160%.

With `COc1cc(-c2csc3[nH]c(=O)c(-c4ccccc4)c(O)c23)ccc1-c1cccnc1` [Compound 56, 4-hydroxy-3-[3-methoxy-4-pyridin-3-ylphenyl]-5-phenyl-6,7-dihydro-thieno[2,3-b]pyridin-6-one], the “activity: Ratio between the % of control” value in assay [1] is on record as 143%.

As to `O=c1[nH]c2scc(-c3ccc(-c4ccncc4)cc3O)c2c(O)c1-c1ccccc1` [Compound 57, 4-hydroxy-3-[2-hydroxy-4-pyridin-4ylphenyl]-5-phenyl-6,7-dihydro-thieno[2,3-b]pyridin-6-one], the “activity: Ratio between the % of control” value in assay [1] amounted to 243%.

In the case of `O=c1[nH]c2scc(-c3ccc(-c4cccc(CO)c4)cc3)c2c(O)c1-c1ccccc1` [Compound 58, 4-hydroxy-3-(3′-hydroxymethylbiphenyl-4-yl)-5-phenyl-6,7-dihydro-thieno[2,3-b]pyridin-6-one], the “activity: Ratio between the % of control” value in assay [1] stood at 111%.

Regarding `O=c1[nH]c2scc(-c3ccc(-c4ccc(CO)cc4)cc3)c2c(O)c1-c1ccccc1` [Compound 59, 4-hydroxy-3-(4′-hydroxymethylbiphenyl-4-yl)-5-phenyl-6,7-dihydro-thieno[2,3-b]pyridin-6-one], in assay [1], the “activity: Ratio between the % of control” value is given as 128%.
